Laboratory results as given in patent publication US7511144B2, “Reverse hydroxamic acid derivatives” (Kaken Pharmaceutical Co., Ltd., priority 2001, dated 2009).
Where two headings read alike, the source gives them in different places.

How the values were obtained:
Assay type in all cases: biochemical
Human MMP17 = molecular target: T1, Human MMP17 (Homo sapiens, UniProt Q9ULZ9); assay: MMP17 inhibition test; details: concentration required for 50% inhibition of enzyme activity; read-out: IC50 value MMP-17
T1 construct: purchased Calbiochem 475940
T1 sequence (Q9ULZ9 126-300 limits assumed): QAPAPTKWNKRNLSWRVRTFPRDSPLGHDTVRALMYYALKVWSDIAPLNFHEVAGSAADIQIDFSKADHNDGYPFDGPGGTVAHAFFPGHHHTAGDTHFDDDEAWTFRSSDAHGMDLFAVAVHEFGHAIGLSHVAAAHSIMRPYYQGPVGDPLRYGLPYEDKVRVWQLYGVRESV

Human MMP13 = molecular target: T2, Human MMP13 (Homo sapiens, UniProt P45452); assay: MMP13 inhibition experiment; details: concentration required for 50% inhibition of enzyme activity; read-out: IC50 value MMP-13
T2 construct: purchased Chemicon CC068
Protocol: Human MMP13 (Chemicon #CC068) in amount of 90 μL (200 ng) was activated by mixing with 10 μL of 10 mM APMA, followed by reaction for 1 hour at 37° C. This enzyme solution in amount of 0.6 μL was diluted to 90 μL with the assay buffer A, which was added to 90 μL of 20 μM fluorescent substrate (Dnp-Pro-Cha-Gly-Cys(Me)-His-Ala-Lys(Nma)-NH2) prepared in the assay buffer B, followed by reaction for 4 hours at 37° C.

Human MMP3 = molecular target: T3, Human MMP3 (Homo sapiens, UniProt P08254); assay: MMP3 inhibition experiment; details: concentration required for 50% inhibition of enzyme activity; read-out: IC50 value MMP-3
T3 construct: purchased Calbiochem 444217
T3 sequence (P08254 100-272 limits assumed): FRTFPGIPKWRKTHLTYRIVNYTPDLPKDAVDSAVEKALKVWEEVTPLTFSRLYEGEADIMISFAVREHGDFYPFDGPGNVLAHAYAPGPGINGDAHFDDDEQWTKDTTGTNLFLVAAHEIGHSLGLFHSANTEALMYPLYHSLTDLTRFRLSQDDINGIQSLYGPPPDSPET
Protocol: (§1) MMP inhibition experiment may be carried out using a fluorescent synthetic substrate according to, for example, the methods of Bickett et al. (D. Mark Bickett et al., Anal. Biochem., 1993, 212, 58-64) and Nagase et al. (H. Nagase et al., J. Biol. Chem., 1994, 269, 20952-20957). The methods of inhibition experiments carried out for various MMPs are described below.
Human MMP3 (Calbiochem #444217) in 90 μL (5 ng) prepared in the assay buffer A was added to 90 μL of 20 μM fluorescent substrate NFF-3(MOCAc-Arg-Pro-Lys-Pro-Val-Glu-Nva-Trp-Arg-Lys(Dnp)-NH2, Peptide Institute, Inc., #3168-v) prepared in the assay buffer B, followed by reaction for 5 hours at 37° C.

TACE = molecular target: T4, TACE (Homo sapiens, UniProt P78536); assay: TACE inhibition experiment (in vitro)
T4 construct: made in house; host or cells: mammalian cells or insect cells
T4 sequence (P78536 215-824): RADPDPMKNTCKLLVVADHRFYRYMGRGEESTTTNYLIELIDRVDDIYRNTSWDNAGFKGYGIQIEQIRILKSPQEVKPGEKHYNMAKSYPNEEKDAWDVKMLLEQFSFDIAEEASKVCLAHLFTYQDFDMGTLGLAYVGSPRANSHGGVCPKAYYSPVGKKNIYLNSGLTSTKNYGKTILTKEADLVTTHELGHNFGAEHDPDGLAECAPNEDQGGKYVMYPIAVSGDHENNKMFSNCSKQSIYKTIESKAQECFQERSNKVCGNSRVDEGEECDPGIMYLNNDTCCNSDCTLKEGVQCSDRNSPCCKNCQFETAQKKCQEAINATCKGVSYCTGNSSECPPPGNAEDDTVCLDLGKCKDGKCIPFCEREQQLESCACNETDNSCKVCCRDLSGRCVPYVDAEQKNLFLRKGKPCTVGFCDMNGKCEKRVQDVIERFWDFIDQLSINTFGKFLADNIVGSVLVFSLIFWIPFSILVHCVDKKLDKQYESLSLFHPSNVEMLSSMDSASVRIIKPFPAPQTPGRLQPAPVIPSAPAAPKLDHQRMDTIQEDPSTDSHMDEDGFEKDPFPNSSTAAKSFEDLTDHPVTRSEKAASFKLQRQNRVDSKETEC

Human MMP9 = molecular target: T5, Human MMP9 (Homo sapiens, UniProt P14780); assay: MMP9 inhibition experiment; details: read-out: IC50 value MMP-9
T5 construct: purchased Calbiochem 444231
T5 sequence (P14780 107-707 limits assumed): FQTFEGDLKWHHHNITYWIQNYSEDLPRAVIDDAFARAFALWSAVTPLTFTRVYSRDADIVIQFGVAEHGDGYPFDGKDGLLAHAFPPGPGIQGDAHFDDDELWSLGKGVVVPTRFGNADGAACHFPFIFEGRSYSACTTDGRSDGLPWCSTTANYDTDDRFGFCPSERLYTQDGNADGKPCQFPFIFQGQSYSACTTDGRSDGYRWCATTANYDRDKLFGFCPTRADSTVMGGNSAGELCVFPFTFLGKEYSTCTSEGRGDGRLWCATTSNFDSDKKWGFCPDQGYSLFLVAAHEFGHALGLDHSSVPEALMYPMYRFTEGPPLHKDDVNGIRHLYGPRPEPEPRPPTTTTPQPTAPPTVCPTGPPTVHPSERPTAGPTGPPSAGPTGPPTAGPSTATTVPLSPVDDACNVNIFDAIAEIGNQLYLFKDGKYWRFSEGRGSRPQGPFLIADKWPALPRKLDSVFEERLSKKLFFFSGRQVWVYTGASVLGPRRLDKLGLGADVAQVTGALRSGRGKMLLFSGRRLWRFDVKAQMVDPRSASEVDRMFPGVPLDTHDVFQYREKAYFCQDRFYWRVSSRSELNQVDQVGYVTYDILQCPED
Protocol: This enzyme solution in amount of 1 μL was diluted to 90 μL with the assay buffer A, which was added to 90 μL of 20 μM fluorescent substrate (Dnp-Pro-Cha-Gly-Cys(Me)-His-Ala-Lys(Nma)-NH2) prepared in the assay buffer B, followed by reaction for 4 hours at 37° C.

Human MMP2 = molecular target: T6, Human MMP2 (Homo sapiens, UniProt P08253); assay: MMP2 inhibition experiment; details: concentration required for 50% inhibition of enzyme activity; read-out: IC50 value MMP-2
T6 construct: purchased Calbiochem 444213
T6 sequence (P08253 110-660): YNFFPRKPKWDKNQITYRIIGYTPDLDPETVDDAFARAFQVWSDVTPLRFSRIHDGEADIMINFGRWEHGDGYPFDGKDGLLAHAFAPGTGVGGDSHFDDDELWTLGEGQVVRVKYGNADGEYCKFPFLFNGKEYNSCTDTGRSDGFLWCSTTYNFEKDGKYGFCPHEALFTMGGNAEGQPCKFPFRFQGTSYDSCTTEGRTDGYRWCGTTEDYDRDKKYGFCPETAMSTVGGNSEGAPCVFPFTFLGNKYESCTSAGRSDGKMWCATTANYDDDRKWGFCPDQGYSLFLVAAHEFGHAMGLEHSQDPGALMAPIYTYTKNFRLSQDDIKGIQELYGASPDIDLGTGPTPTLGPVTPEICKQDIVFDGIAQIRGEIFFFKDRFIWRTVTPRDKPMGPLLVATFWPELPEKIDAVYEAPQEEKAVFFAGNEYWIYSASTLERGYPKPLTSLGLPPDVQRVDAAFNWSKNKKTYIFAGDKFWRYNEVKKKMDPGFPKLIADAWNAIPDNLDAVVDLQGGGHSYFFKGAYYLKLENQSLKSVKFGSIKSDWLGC
Protocol: This enzyme solution in amount of 10 μL was diluted to 90 μL with the assay buffer A, which was added to 90 μL of 20 μM fluorescent substrate (MOCAc((7-methoxycoumarin-4-yl)acetyl)-Pro-Leu-Gly-Leu-A2pr(Dnp)-Ala-Arg-NH2, Peptide Institute, Inc., #3163-v) prepared in the assay buffer B, followed by reaction for 5 hours at 37° C.

Human MMP1 = molecular target: T7, Human MMP1 (Homo sapiens, UniProt P03956); assay: MMP1 inhibition experiment; details: read-out: IC50 value MMP-1
T7 construct: purchased Calbiochem 444208
T7 sequence (P03956 100-469): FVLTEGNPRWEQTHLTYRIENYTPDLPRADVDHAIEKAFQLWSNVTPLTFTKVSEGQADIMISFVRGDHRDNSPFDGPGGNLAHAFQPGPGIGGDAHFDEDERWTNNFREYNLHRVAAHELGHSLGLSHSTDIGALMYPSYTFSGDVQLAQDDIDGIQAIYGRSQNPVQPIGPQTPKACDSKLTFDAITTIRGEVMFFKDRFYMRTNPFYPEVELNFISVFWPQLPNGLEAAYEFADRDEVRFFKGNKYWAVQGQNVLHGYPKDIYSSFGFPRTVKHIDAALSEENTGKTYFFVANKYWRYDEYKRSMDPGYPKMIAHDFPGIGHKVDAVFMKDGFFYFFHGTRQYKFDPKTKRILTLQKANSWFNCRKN
Protocol: This enzyme solution in amount of 10 μL was diluted to 90 μL with the assay buffer A, which was added to 90 μL of 20 μM fluorescent substrate (Dnp-Pro-Cha(β-cyclohexylalanyl)-Gly-Cys(Me)-His-Ala-Lys(Nma)-NH2) prepared in the assay buffer B, followed by reaction for 5 hours at 37° C.

Human MMP14 = molecular target: T8, Human MMP14 (Homo sapiens, UniProt P50281); assay: MMP14 inhibition experiment; details: concentration required for 50% inhibition of enzyme activity; read-out: IC50 value MMP-14
T8 construct: purchased Biogenesis or Calbiochem 5980-1461 or 475935
Protocol: as §1
Human MMP14 (Biogenesis #5980-1461 or Calbiochem #475935) in amount of 90 μL (4 ng) prepared in the assay buffer A was added to 90 μL of 20 μM fluorescent substrate (Dnp-Pro-Cha-Gly-Cys(Me)-His-Ala-Lys(Nma)-NH2) prepared in the assay buffer B, followed by reaction for 5 hours at 37° C.

[1] = concentration required for 50% inhibition of enzyme activity

SMILES | IC50 (Human MMP17) | IC50 (Human MMP13) | IC50 (Human MMP3) | IC50 (TACE) | IC50 (Human MMP9) | IC50 (Human MMP2) | IC50 (Human MMP1) | IC50 (Human MMP14) | IC50 (TACE; [1]) | IC50 (Human MMP9; [1])
Cc1cc(COc2ccc(S(=O)(=O)CC(CC3CCC(=NO)CC3)N(O)C=O)cc2)cc(C)n1 (stereo not drawn) [Example I-112] | 4 µM | 2 µM | 4 µM | 0.063 µM | 40 µM | 1.3 µM | > 100 µM | 60 µM |  | 
Cc1cc(COc2ccc(S(=O)(=O)CC(C(F)=C3CCOCC3)N(O)C=O)cc2)c2ccccc2n1 (stereo not drawn) [Example I-16] | 5.5 µM | 40 µM | 10 µM | 0.007 µM | > 100 µM | 40 µM | > 100 µM | > 100 µM |  | 
Cc1cc(Cl)cc(COc2ccc(S(=O)(=O)CC(CC3CCC(=NO)CC3)N(O)C=O)cc2)c1 (stereo not drawn) [Example I-100] | 7 µM | 6 µM | 7 µM | 0.2 µM | 23 µM | 4 µM | 43 µM | 25 µM |  | 
COc1cc(C)cc(COc2ccc(S(=O)(=O)CC(C=C3CCC4(CC3)OCCO4)N(O)C=O)cc2)c1 (stereo not drawn) [Example I-95] | > 100 µM | > 100 µM | > 100 µM | 1.5 µM | > 100 µM | > 100 µM | > 100 µM | > 100 µM |  | 
Cc1cc(C)cc(COc2ccc(S(=O)(=O)CC(C=C3CCC4(CC3)OCCO4)N(O)C=O)cc2)c1 (stereo not drawn) [Example I-91] | 40 µM | 35 µM | 35 µM | 0.4 µM | 33 µM | 43 µM | > 100 µM | 40 µM |  | 
Cc1cc(COc2ccc(S(=O)(=O)CC(C=C3CCC(=O)CC3)N(O)C=O)cc2)cc(C)n1 (stereo not drawn) [Example I-114] | 30 µM | 10 µM | 23 µM | 0.1 µM | > 100 µM | 7 µM | > 100 µM | > 100 µM |  | 
CC(=O)N(O)C(C=C1CCSCC1)CS(=O)(=O)c1ccc(OCc2cc(C)nc3ccccc23)cc1 (stereo not drawn) [Example I-126, N-hydroxy-N-{2-[4-(2-methylquinolin-4-ylmethoxy)benzenesulfonyl]-1-(tetrahydrothipyran-4-ylidenemethyl)ethyl}acetamide] | 6.3 µM | 70 µM | 12 µM | 0.31 µM | > 100 µM | > 100 µM | > 100 µM | > 100 µM |  | 
Cc1cc(C)cc(COc2ccc(S(=O)(=O)CC(C=C3CCC(=O)CC3)N(O)C=O)cc2)c1 (stereo not drawn) [Example I-92] | 40 µM | 35 µM | 60 µM | 0.3 µM | 60 µM | 43 µM | > 100 µM | > 100 µM |  | 
Cc1cc(COc2ccc(S(=O)(=O)CC(CC3CCC(=O)CC3)N(O)C=O)cc2)cc(C)n1 (stereo not drawn) [Example I-113] | 6 µM | 2.3 µM | 8 µM | 0.13 µM | 70 µM | 2 µM | 60 µM | 60 µM |  | 
Cc1cc(COc2ccc(S(=O)(=O)CC(CN3CCN(CC(C)C)CC3)N(O)C=O)cc2)c2ccccc2n1 (stereo not drawn) [Example I-46] | 0.65 µM | 42 µM | 4.4 µM | 0.022 µM | > 100 µM | 20 µM | > 100 µM | > 100 µM |  | 
Cc1cc(COc2ccc(S(=O)(=O)CC(C=C3CCSCC3)N(O)C(N)=O)cc2)c2ccccc2n1 (stereo not drawn) [Example I-125, 1-hydroxy-1-{2-[4-(2-methylquinolin-4-ylmethoxy)benzenesulfonyl]-1-(tetrahydrothiopyran-4-ylidenemethyl)ethyl}urea] | > 100 µM | > 100 µM | > 100 µM | 0.63 µM | > 100 µM | > 100 µM | > 100 µM | > 100 µM |  | 
Cc1cc(COc2ccc(S(=O)(=O)CC(C3CCC(=NOC=O)CC3)N(O)C=O)cc2)c2ccccc2n1 (stereo not drawn) [Example I-13] | 0.7 µM | 10 µM | 3 µM | 0.021 µM | 28 µM | 40 µM | 60 µM | 40 µM |  | 
Cc1cc(COc2ccc(S(=O)(=O)CC(C3CCC(=O)CC3)N(O)C=O)cc2)c2ccccc2n1 (stereo not drawn) [Example I-11, N-Hydroxy-N-{2-[4-(2-methylquinolin-4-ylmethoxy)benzenesulfonyl]-1-(4-oxocyclohexyl)ethyl}formamide] | 0.6 µM | 7 µM | 2 µM |  |  | 30 µM | 45 µM | 35 µM | 0.02 µM | 28 µM
COc1cc(C)cc(COc2ccc(S(=O)(=O)CC(C3CCC4(CC3)OCCO4)N(O)C=O)cc2)c1 (stereo not drawn) [Example I-8, N-[1-(1,4-Dioxaspiro[4.5]dec-8-yl)-2-{4-(3-methoxy-5-methylbenzyloxy)benzenesulfonyl}ethyl]-N-hydroxyformamide] | 2 µM | 2.2 µM | 2 µM | 0.08 µM | 35 µM |  | > 100 µM | 40 µM |  | 
C=C1CCC(C(CS(=O)(=O)c2ccc(OCc3cc(C)nc(C)c3)cc2)N(O)C=O)CC1 (stereo not drawn) [Example I-4, N-[2-{4-(2,6-dimethylpyridin-4-ylmethoxy)benzenesulfonyl}-1-(4-methylenecyclohexyl)ethyl]-N-hydroxyformamide] | 2 µM | 2.5 µM | 5 µM | 0.06 µM | 40 µM |  | > 100 µM | 43 µM |  | 
Cc1cc(COc2ccc(S(=O)(=O)CC(C=C3CCC(=O)CC3)N(O)C=O)cc2)c2ccccc2n1 (stereo not drawn) [Example I-3, N-Hydroxy-N-[2-{4-(2-methylquinolin-4-ylmethoxy)benzenesulfonyl}-1-(4-oxocyclohexylidenemethyl)ethyl]formamide] | 2.5 µM | 22 µM | 6.3 µM |  |  |  | > 100 µM | 43 µM | 0.0035 µM | 50 µM
C=C1CCC(C(CS(=O)(=O)c2ccc(OCc3cc(C)cc(OC)c3)cc2)N(O)C=O)CC1 (stereo not drawn) [Example I-7, N-Hydroxy-N-[2-{4-(3-methoxy-5-methylbenzyloxy)benzenesulfonyl)-1-(4-methylenecyclohexyl)ethyl]formamide] | 6 µM | 10 µM | 20 µM | 0.2 µM | 30 µM |  | 43 µM | 40 µM |  | 
